Assay results taken from US4556677A, “Alkane and alkene derivatives and their use” (Farmos Group Ltd., priority 1981, dated 1985).
Counter-ions that a name gives are not always drawn.

How the values were obtained:
immature mouse uterus [1] = experiment: antiestrogenic effect in vivo, inhibition of oestradiol induced uterus weight increase in immature mice
Procedure: (§1) The estrogen-antiestrogen (progesterone-antiprogesterone) effect in vivo was determined as follows:
The antiestrogenic effects of the molecules were determined in a similar manner in immature mice. In this case, the ability of the molecules to inhibit estrogen-induced uterus weight increase was investigated, too.
The compound 1 at a dose of 0.5 mg/kg caused a 50% inhibition of oestradiol induced effect on mouse uterus.
(§2) In Table 2 a summary of the oestrogenic/antioestrogenic and progestanic/antiprogestanic effect of some of the compounds can be seen. The percentages refer to increase/reduction in mice uterus weights.

estrogen receptors = target: T1, estrogen receptors (Rattus norvegicus, UniProt P06211); experiment: affinity to estrogen receptors, competition with 3H-labelled 17-β-estradiol (dextran-charcoal method); assay type: binding; conditions: rat uterus cytosol, Table 1; read-out: Affinity (concentration of compound where 50% competition (inhibition) with 3H-estradiol occurred)
T1 construct: rat uterus cytosol preparation; from tissue; host or cells: rat uterus cytosol
T1 sequence (P06211 1-600): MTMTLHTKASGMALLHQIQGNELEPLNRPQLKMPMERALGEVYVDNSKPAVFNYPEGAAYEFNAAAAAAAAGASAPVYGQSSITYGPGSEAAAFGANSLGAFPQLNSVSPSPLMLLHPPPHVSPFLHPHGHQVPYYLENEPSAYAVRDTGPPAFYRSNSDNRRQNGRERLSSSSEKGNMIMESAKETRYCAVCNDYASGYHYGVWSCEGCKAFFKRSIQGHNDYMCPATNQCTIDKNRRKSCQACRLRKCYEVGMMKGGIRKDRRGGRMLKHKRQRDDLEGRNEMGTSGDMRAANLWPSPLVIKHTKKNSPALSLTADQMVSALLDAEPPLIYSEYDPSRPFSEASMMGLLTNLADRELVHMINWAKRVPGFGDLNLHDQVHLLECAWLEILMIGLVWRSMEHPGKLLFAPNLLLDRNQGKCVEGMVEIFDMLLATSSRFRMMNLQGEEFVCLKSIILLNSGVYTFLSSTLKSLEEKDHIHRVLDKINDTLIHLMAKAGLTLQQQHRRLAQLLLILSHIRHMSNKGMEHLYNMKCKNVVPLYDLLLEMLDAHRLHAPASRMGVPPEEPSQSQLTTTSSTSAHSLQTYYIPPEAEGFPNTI
Procedure: The affinity to estrogen receptors was determined by the ability of the molecules to compete with ^3 H-labelled 17-β-estradiol in rat uterus cytosol preparation. After incubation, receptor-bound and receptor-unbound ligands were separated by a known dextrancharcoal method. (Korenman, S. G.: "Comparative binding affinity of estrogens and its relation to estrogenic potency". Steroids 13: 163-177, 1969). […] The results in table 1 are shown as follows: | with ^3 H--estradiol occurred

immature mouse uterus [2] = experiment: estrogenic effect in vivo, immature mouse uterus weight; conditions: for oestrogenic effect, % less than that of oestradiol 0.05 mg/kg: s.c., immature mice; for estrogenic effect (in words): immature mouse uterus weight
Procedure: as §1
The estrogenic properties of the molecules were determined by administering the molecules, suspended in sesam oil, subcutaneously to 21 days old immature mice on three consecutive days. The mice were killed on the fourth day and the uterus was weighed. Estradiol (positive control) increases the weight of the uterus. The weight correlates with the estrogenic effect of the molecules.
The estrogenic effect of compounds of the invention as measured by their ability to increase the weight of immature mouse uterus was usually far less than that of oestradiol, the positive control. […] At the dose of 0.5 mg/kg the oestrogenic effect of compound 1, 7 and 8 were respectively 20%, 75% and 83% less and at the dose of 5 mg/kg the oestrogenic effect of compound 2 was 60% less than that of oestradiol 0.05 mg/kg.
as §2

[3] = tested on: DMBA-induced rat mammary adenocarcinomas; experiment: antitumour effect in vivo against DMBA-induced rat mammary adenocarcinomas
Procedure: (§3) The anti-tumour effect was investigated in vivo against DMBA-induced rat mammary adenocarcinomas and transplantable mammary adenocarcinoma according to the following methods:
Mammary adenocarcinomas were induced by DMBA in 35-40 days old female rats. Treatment with the molecules to be investigated was started after palpable tumours had appeared. Tumour size and numbers of tumours were evaluated twice a week. Tumour sizes in the control group, treated with solvent, were compared with the test groups.
The antitumour effect in vivo against DMBA-induced mammary carcinomas was investigated as described earlier. […] Compound 2 at the dose of 7.5 mg/kg caused a 63% decrease in the size of tumours compared to the control.

mouse uterus [4] = experiment: antiprogestanic/synergistic effect in vivo, given together with medroxyprogesterone acetate, mouse uterus weight; conditions: for Given with medroxyprogesterone acetate: effect (in words) / Given with medroxyprogesterone acetate: reduction in mice uterus weight: Table 2, 0.5 mg/kg, with medroxyprogesterone acetate 0.06 mg/kg
Procedure: as §1
(§4) The (anti)progestanic effects were studied in a similar manners as the estrogenic ones. Medroxyprogesterone acetate, which decreases uterus weight, was used as reference.
(§5) The progestanic and antiprogestanic effects of compounds were measured as described earlier. The compound No. 2 reduced the weight of mouse uterus by 49% compared to control while medroxyprogesterone acetate gave 40% reduction.
as §2

[5] = tested on: MCF-7 human mammary adenocarcinoma cell line; experiment: anti-tumour effect in vitro, growth of MCF-7 cells (bioluminescence ATP assay); assay type: cell-based; conditions: Homo sapiens, MCF7; MCF-7, Table 3; read-out: Antitumour effect (IC50 = concentration of compound where 50% inhibition of cell growth could be seen)
Procedure: The anti-tumour effect was studied in vitro as follows:
The growth of MCF-7 cell line (human mammary adenocarcinoma, known to be estrogen-dependent) was evaluated in the presence or absence of estradiol, medroxyprogesterone acetate or the molecules to be investigated. Combinations of molecule plus estradiol and molecule plus medroxyprogesterone were also studied. The amount of living cells after 4 h, 24 h and 48 h incubations were determined by bioluminescence assay (intracellular ATP determination).
The antitumour effects of the compounds had been tested in vitro against MCF-7 human mammary adenocarcinoma cell line and in vivo against DMBA-induced rat mammary adenocarcinomas and transplantable mammary adenocarcinoma.
In table 3 the antitumour effects of certain compounds can be seen.

mouse uterus [6] = experiment: progestanic effect in vivo, reduction of mouse uterus weight; conditions: given alone; for Given alone: progestanic effect (in words) / Given alone: reduction in mice uterus weight: Table 2, 0.5 mg/kg
Procedure: as §1, §4, §5, §2

[7] = tested on: transplantable rat mammary adenocarcinoma; experiment: effect on transplantable rat mammary adenocarcinoma; assay type: in vivo
Description: as §3
Transplantable rat mammary adenocarcinoma was developed by inoculating pieces of DMBA-induced carcinomas subcutaneously to healthy mature female rats. A tumor which expressed malignant growth was selected for further transplantations.
The effects of compounds mentioned earlier against transplantable rat mammary adenocarcinoma can be seen in table 4.
The figures in table 4 refer to relative sizes compared to controls which is 100.

[8] = Table 2, 0.5 mg/kg, with oestradiol 0.05 mg/kg

SMILES | IC50 (estrogen receptors) | IC50 [5] | estrogenic effect (in words) (immature mouse uterus [2]) | Given with medroxyprogesterone acetate: effect (in words) (mouse uterus [4]) | Given with medroxyprogesterone acetate: reduction in mice uterus weight (mouse uterus [4]) | Given alone: progestanic effect (in words) (mouse uterus [6]) | Given alone: reduction in mice uterus weight (mouse uterus [6]) | relative tumour size compared to controls which is 100 ([7]; 1.0 mg/kg) | relative tumour size compared to controls which is 100 ([7]; 5.0 mg/kg) | relative tumour size compared to controls which is 100 ([7]; 10.0 mg/kg) | further results
CC/C(=C(\c1ccccc1)c1ccc(OCCN(C)C)cc1)C1CCCC1 [Compound 2, (Z)--2-cyclopentyl-1-(p-(N,N--dimethyl-2-amino-ethoxy)phenyl)-1-phenyl-1-butene, hydrochloride] | 100 to 10000 nM | 5 to 10 µM | dose dependent | synergistic | 61% | progestanic | 49% | 82 | 87 | 69 | inhibition of oestradiol induced effect on mouse uterus (immature mouse uterus [1]; 5 mg/kg): 50%; Given with oestradiol: effect (in words) (immature mouse uterus [1]; [8]): antioestrogenic; Given with oestradiol: reduction in mice uterus weight (immature mouse uterus [1]; [8]): 36%; oestrogenic effect, % less than that of oestradiol 0.05 mg/kg (immature mouse uterus [2]; 5 mg/kg): 60%; Given alone: oestrogenic effect (in words) (immature mouse uterus [2]; Table 2, 0.5 mg/kg, given alone): oestrogenic; decrease in size of tumours compared to the control ([3]; 7.5 mg/kg): 63%; antiprogestanic / synergistic effect with medroxyprogesterone acetate (in words) (mouse uterus [4]; together with medroxyprogesterone acetate): no antiprogestanic effects but a synergistic effect could be seen; reduction of mouse uterus weight compared to control (mouse uterus [6]; dose not given): 49%
CCC(=C(c1ccc(OC)cc1)c1ccc(OCCN(C)C)cc1)C1CCCC1 [Compound 11, 2-cyclopentyl-1-[p-(N,N-dimethyl-2-aminoethoxy)phenyl]-1-(p-methoxyphenyl)-1-butene] | 10000 to 100000 nM | 1 to 10 µM | – | synergistic | 67% | progestanic | 20% | 87 | 87 | 50 | reduction of mouse uterus weight together with medroxyprogesterone acetate (mouse uterus [4]; together with medroxyprogesterone acetate, vs 40% for the acetate alone): 67%; progestanic effect (in words) (mouse uterus [6]): purely due to its progestanic effect; reduction of mouse uterus weight (mouse uterus [6]; 0.5 mg/kg): 20%
CCC(C1CCCC1)C(c1ccccc1)c1ccc(O)cc1 (stereo not shown) [Compound 4, 2-cyclopentyl-1-(p-hydroxyphenyl)-1-phenylbutane] | 100 to 1000 nM | 1 to 5 µM | – | – | – | – | – | – | – | – | –

Second part, led by results:

IC50 (estrogen receptors) | IC50 [5] | SMILES | estrogenic effect (in words) (immature mouse uterus [2]) | Given with medroxyprogesterone acetate: effect (in words) (mouse uterus [4]) | Given with medroxyprogesterone acetate: reduction in mice uterus weight (mouse uterus [4]) | Given alone: progestanic effect (in words) (mouse uterus [6]) | Given alone: reduction in mice uterus weight (mouse uterus [6]) | relative tumour size compared to controls which is 100 ([7]; 1.0 mg/kg) | relative tumour size compared to controls which is 100 ([7]; 5.0 mg/kg) | relative tumour size compared to controls which is 100 ([7]; 10.0 mg/kg) | further results
10000 to 100000 nM | 5 to 10 µM | CC/C(=C(\c1ccccc1)c1ccc(OCCNC)cc1)C1CCCC1 [Compound 10, (Z)--2-cyclopentyl-1-[p-(N--methyl-2-aminoethoxy)-phenyl]-1-phenyl-1-butene, hydrochloride] | – | – | – | – | – | – | – | – | –
100 to 1000 nM | 1 to 10 µM | CCC(c1ccc(O)cc1)C(CC)C1CCCC1 (stereo not shown) [Compound 9, 3-cyclopentyl-4-(p-hydroxyphenyl)-hexane] | – | – | – | – | – | – | – | – | –
100 to 1000 nM | 1 to 5 µM | CC/C(=C(/c1ccccc1)c1ccc(O)cc1)C1CCCC1 [Compound 1, (E)--2-cyclopentyl-1-(p-hydroxyphenyl)-1-phenyl-1-butene] | dose dependent | – | – | – | – | 80 | 77 | 58 | inhibition of oestradiol induced effect on mouse uterus (immature mouse uterus [1]; 0.5 mg/kg): 50%; oestrogenic effect, % less than that of oestradiol 0.05 mg/kg (immature mouse uterus [2]; 0.5 mg/kg): 20%; decrease in size of tumours compared to the control ([3]; 10 mg/kg): 75%; growth of the tumours (in words) ([3]; 10 mg/kg): the growth of the tumours was slowed; number of the tumours (in words) ([3]; 10 mg/kg): the number of the tumours was decreasing; relative tumour size compared to controls which is 100 ([7]; 20.0 mg/kg): 64; relative tumour size compared to controls which is 100 ([7]; 40.0 mg/kg): 40
